A value given as a limit tells only on which side of the number the result lay.

In assay [1] the test system is T1, HCoV-OC43.
T1 construct: ATCC VR-1558
Put plainly: microbe, parasite or virus in culture. The arrangement: HCoV-OC43 infection assay, reduction of viral infection. Particulars: Betacoronavirus 1, OC43, read-out: OC43.

Assay [2] deals with SARS-CoV-2 NSP7-HiBiT. The conditions noted are these: read-out: NSP7- HiBiT; reduction of NSP7-HiBiT signal; degrader. Background: With HiBiT, luminescence reflects the tagged protein that the partner subunit can reach.

As to `CCSc1nsc(NC(=O)NCc2ccc(F)cc2)n1` [BC24886, 3-(ethylthio)-5-{3-[(p-fluorophenyl)methyl]ureido}-1,2,4-thiadiazole], the IC50 in assay [1] and in assay [2] was > 100 µM throughout.

Take `CCSc1nsc(NC(=O)NC[C@H]2CCCO2)n1` [BC24887, 3-(ethylthio)-5-(3-{[(R)-perhydro-2-furyl]methyl}ureido)-1,2,4-thiadiazole]: the IC50 in assay [1] and in assay [2] was > 100 µM in each case.

For `CCSc1nsc(NC(=O)Nc2cccc(SC)c2)n1` [BC24888, 3-(ethylthio)-5-{3-[m-(methylthio)phenyl]ureido}-1,2,4-thiadiazole], the IC50 is 5.27 µM in assay [1] and 9.09 µM in assay [2].

For the compound `CCSc1nsc(NC(=O)N[C@@H](C)C(=O)OC)n1` [BC24889, methyl (S)-2-{3-[3-(ethylthio)-1,2,4-thiadiazol-5-yl]ureido}propionate], the IC50 in assay [1] and in assay [2] was > 100 µM in each case.

As to `CCSc1nsc(NC(=O)NC(C)C)n1` [BC24891, 3-(ethylthio)-5-(3-isopropylureido)-1,2,4-thiadiazole], the IC50 in assay [1] and in assay [2] was > 100 µM each time.

`CCSc1nsc(NC(=O)N[C@@H](C)CC)n1` [BC24892, 5-{3-[(S)-1-methylpropyl]ureido}-3-(ethylthio)-1,2,4-thiadiazole]: the IC50 in assay [1] and in assay [2] was > 100 µM throughout.

As for `CCSc1nsc(NC(=O)NCCC(C)C)n1` [BC24893, 3-(ethylthio)-5-(3-isopentylureido)-1,2,4-thiadiazole], the IC50 in assay [1] was 13.7 µM; in assay [2], 18.5 µM.

Turning to `CCSc1nsc(NC(=O)NC2CCCCC2)n1` [BC24894, 5-(3-cyclohexylureido)-3-(ethylthio)-1,2,4-thiadiazole], the IC50 is 17.5 µM in assay [1] and 23.7 µM in assay [2].

Take `CCSc1nsc(NC(=O)Nc2cccc(F)c2)n1` [BC24895, 3-(ethylthio)-5-[3-(m-fluorophenyl)ureido]-1,2,4-thiadiazole]: the IC50 in assay [1] was determined as 2.53 µM; in assay [2], 8.87 µM.

Take `CCSc1nsc(NC(=O)NCC(C)C)n1` [BC24896, 3-(ethylthio)-5-(3-isobutylureido)-1,2,4-thiadiazole]: the values for the IC50 in assay [1] and in assay [2] were 29.9 µM and 29.3 µM, respectively.

On to `CCOC(=O)CCNC(=O)Nc1nc(SCC)ns1` [BC24897, ethyl 3-{3-[3-(ethylthio)-1,2,4-thiadiazol-5-yl]ureido}propionate], for which the IC50 in assay [1] and in assay [2] was > 100 µM throughout.

With `CCSc1nsc(NC(=O)NCCOC)n1` [BC24899, 3-(ethylthio)-5-[3-(2-methoxyethyl)ureido]-1,2,4-thiadiazole], the IC50 in assay [1] and in assay [2] was > 100 µM in each case.

On to `CCSc1nsc(NC(=O)NC(C)(C)C)n1` [BC24900, 5-(3-tert-butylureido)-3-(ethylthio)-1,2,4-thiadiazole], for which the IC50 in assay [1] and in assay [2] was > 100 µM throughout.

For `CCOC(=O)[C@H](C)NC(=O)Nc1nc(SCC)ns1` [BC24902, ethyl (S)-2-{3-[3-(ethylthio)-1,2,4-thiadiazol-5-yl]ureido}propionate], the IC50 in assay [1] and in assay [2] was > 100 µM each time.

Consider `CCSc1nsc(NC(=O)NCc2cccc(F)c2)n1` [BC24904, 3-(ethylthio)-5-{3-[(m-fluorophenyl)methyl]ureido}-1,2,4-thiadiazole], for which the IC50 in assay [1] and in assay [2] was > 100 µM throughout.

For the compound `CCSc1nsc(NC(=O)Nc2c(C)cccc2C)n1` [BC24905, 3-(ethylthio)-5-[3-(2,6-xylyl)ureido]-1,2,4-thiadiazole], the IC50 in assay [1] turned out to be 15.8 µM; in assay [2], 22.1 µM.

`CCSc1nsc(NC(=O)NCc2ccc(OC)cc2)n1` [BC24906, 3-(ethylthio)-5-{3-[(p-methoxyphenyl)methyl]ureido}-1,2,4-thiadiazole]: the IC50 in assay [1] and in assay [2] was > 100 µM throughout.

For `CCSc1nsc(NC(=O)Nc2cccc(F)c2C)n1` [BC24907, 3-(ethylthio)-5-[3-(3-fluoro-2-tolyl)ureido]-1,2,4-thiadiazole], the IC50 in assay [1] was 3.36 µM; in assay [2], 9.85 µM.

Turning to `CCCCc1ccc(NC(=O)Nc2nc(SCC)ns2)cc1` [BC24908, 5-[3-(p-butylphenyl)ureido]-3-(ethylthio)-1,2,4-thiadiazole], the IC50 was 18.3 µM in assay [1] and 30 µM in assay [2].

Turning to `CCSc1nsc(NC(=O)Nc2cc(F)c(F)c(F)c2)n1` [BC24910, 3-(ethylthio)-5-[3-(3,4,5-trifluorophenyl)ureido]-1,2,4-thiadiazole], the IC50 came out at 0.42 µM in assay [1] and 2.23 µM in assay [2].

As for `CCSc1nsc(NC(=O)Nc2cccc(Cl)c2F)n1` [BC24911, 5-[3-(3-chloro-2-fluorophenyl)ureido]-3-(ethylthio)-1,2,4-thiadiazole], the IC50 in assay [1] was 8.13 µM; in assay [2], 9.72 µM.

`CCSc1nsc(NC(=O)Nc2ccc(C(F)(F)F)cc2)n1` [BC24912, 3-(ethylthio)-5-{3-[p-(trifluoromethyl)phenyl]ureido}-1,2,4-thiadiazole]: the figures for the IC50 in assay [1] and in assay [2] were 0.672 µM and 1.76 µM, respectively.

On to `CCOC(=O)C1CCC(CNC(=O)Nc2nc(SCC)ns2)CC1` (centres unmarked) [BC24913, ethyl 4-({3-[3-(ethylthio)-1,2,4-thiadiazol-5-yl]ureido}methyl)cyclohexanecarboxylate], for which the IC50 in assay [1] is 17.4 µM; in assay [2], > 100 µM.

In the case of `CCSc1nsc(NC(=O)Nc2ccc3c(c2)CCC3)n1` [BC24915, 3-(ethylthio)-5-[3-(5-indanyl)ureido]-1,2,4-thiadiazole], the IC50 in assay [1] turned out to be 17.4 µM; in assay [2], 34 µM.

Consider `CCSc1nsc(NC(=O)Nc2ccc(OC)cc2C)n1` [BC24916, 3-(ethylthio)-5-[3-(4-methoxy-2-tolyl)ureido]-1,2,4-thiadiazole], for which the IC50 is 17.2 µM in assay [1] and > 100 µM in assay [2].

The values are drawn from paper PMC12463105, “NSP7 Molecular Degrader Attenuates Coronaviral Infection Through the β‐TrCP1/FBXO5 Axis” (Advanced Science, 2025).
